Test [1] addresses BRD4-BD1-BD2 (Homo sapiens (Human), UniProt O60885). The test can be described thus: AlphaScreening assay, recombinant BRD4-BD1-BD2 and BET Ligand. The settings on record: 2.5 nM BRD4-BD1-BD2, BET Ligand. Type of test: binding. The method, then: Assays were performed by AlphaScreening technology using a recombinant BRD4-BD1-BD2 and BET Ligand. The AlphaScreening signal from the assay was correlated with the amount of BET Ligand binding to the bromodomain. The compounds were diluted in 50% DMSO and 1 μl of the dilution was added to a 10 μl reaction so that the final concentration of DMSO is 5% in all of reactions. All reactions were conducted at room temperature. The 9 μl reaction mixture in BRD Assay Buffer contains 2.5 nM BRD4-BD1-BD2 and the indicated amount of the inhibitor, and the reaction mixture were incubated for 30 min followed by additional 30 min incubation after the addition of 1 μl of BET Ligand (Table 2.3.1). For the negative control (blank), 1 μl of the assay buffer was added instead of the BET Ligand. After the 30 min incubation with the BET Ligand, 20 μl of BRD Detection buffer containing 10 μg/ml Glutathione acceptor beads and 10 μg/ml Streptavidin Donor beads was added and the final 30 μl mixture was incubated for 50 min in a dark room.
AlphaScreening signal was measured using EnSpire Alpha 2390 Multilabel reader (Perkin Elmer). Binding experiments were performed in duplicate at each concentration. The AlphaScreening data were analyzed using the computer software, Graphpad Prism. In the absence of the compound, the AlphaScreening signal (At) in each data set was defined as 100% activity. In the absence of the BET Ligand, the AlphaScreening signal (Ab) in each data set was defined as 0% activity. The percent activity in the presence of each compound was calculated according to the following equation: % activity=[(A−Ab)/(At−Ab)]×100, where A=the AlphaScreening signal in the presence of the compound, Ab=the AlphaScreening signal in the absence of the BET Ligand, and At=the AlphaScreening signal in the absence of the compound. The percent inhibition was calculated for certain compounds according to the following equation: % inhibition=100−% activity.

The test system of test [2] is MV4-11 acute myeloid leukemia cells. The test can be described thus: In vitro cell viability (AlamarBlue), MV4-11. Type of test: cell-based. The following applies: Homo sapiens, MV4-11 cells, 72-hour incubation, read-out: In Vitro Cell Viability (IC50) MV4-11 Cells (AML). Here is the method:
(§1) MV4-11 acute myeloid leukemia cells (American Type Culture Collection, Manassas, Va.) were added to 96-well clear bottom assay plates containing RPMI-1640 medium supplemented with 10% fetal bovine serum (FBS) at approximately 30,000 cells/well and incubated for 24 hours at 37° C. with 5% CO2 and 95% humidity. Control wells containing no cells were included to measure background fluorescence signal. Test compounds were dissolved at […] and diluted two-fold in DMSO to produce a working stock of compound solutions. Aliquots of the working stock solutions were subsequently diluted 100-fold in basal RPMI-1640 medium which was then further diluted 10-fold to the assay plate containing the cells to provide 10 test concentrations ranging from 0.04 μM-20 μM. Following a 72-hour incubation period, viability of the cells was determined by the AlamarBlue® assay (Life Technologies, Carlsbad, Calif.) following the manufacturer's protocol. Prior to generation of dose response curves, the data were background subtracted using the no cell control values (mean+/−standard deviation) and fluorescence values versus Log10 concentration of test compounds were plotted using GraphPad Prism. The resulting sigmoidal curve was then fit to the graph and IC50 values were calculated using a 4 parameter (4PL) algorithm using the following equation: 4(PL)F(x)=(A−D)/(1+(x/c)^B+D, where A=lower asymptote (baseline response), D=upper asymptote (maximum response), C=drug concentration that provokes a response halfway between A and D, B=slope of the curve. The results for selected compounds are set forth in Table 7.

In test [3] the test system is MM1.S Cells (Multiple Myeloma). Description: In vitro cell viability, MM1.S. Type of test: cell-based. The following applies: Homo sapiens. The method, then: [Worded in the source for another cell line; this cell line is reported under the same test.] as §1

Take `C/C(=C\C(=O)c1c(-c2ccccc2)c2cc(Cl)ccc2[nH]c1=O)c1c(F)cccc1Cl`: the inhibition at 10 µM in test [1] was 50%.

Regarding `Cc1noc(C)c1-c1ccc2[nH]c(=O)cc(O)c2c1`, the inhibition at 10 µM in test [1] was 51%.

As for `COc1ccccc1/C=C/C(=O)c1c(-c2ccccc2)c2cc(Cl)ccc2[nH]c1=O` [Compound 5, 6-chloro-3-(3-(2-methoxyphenyl)acryloyl)-4-phenylquinolin-2(1H)-one], the figures for the IC50 in test [2] and in test [3] were 1490 nM and 2530 nM, respectively.

For `COc1ccc(/C=C/C(=O)c2c(-c3ccccc3)c3cc(Cl)ccc3[nH]c2=O)cc1OC` [Compound 6, 6-chloro-3-(3-(3,4-dimethoxyphenyl)acryloyl)-4-phenylquinolin-2(1H)-one], the IC50 was 3570 nM in test [2] and 31900 nM in test [3].

In the case of `COc1ccc(OC)c(/C=C/C(=O)c2c(-c3ccccc3)c3cc(Br)ccc3[nH]c2=O)c1` [Compound 10, 6-bromo-3-(3-(2,5-dimethoxyphenyl)acryloyl)-4-phenylquinolin-2(1H)-one], the half-inhibitory concentration (IC50) in test [2] amounted to 1750 nM; in test [3], 3000 nM.

For the molecule `O=C(/C=C/c1ccccc1)c1c(-c2ccncc2)c2cc(Cl)ccc2[nH]c1=O` [Compound 11, 6-chloro-3-cinnamoyl-4-(pyridin-4-yl)quinolin-2(1H)-one], the results for the concentration for half-maximal inhibition (IC50) in test [2] and in test [3] were 970 nM and 4210 nM, respectively.

For the molecule `Cc1ccccc1/C=C/C(=O)c1c(-c2cccnc2)c2cc(Cl)ccc2[nH]c1=O` [Compound 12, 6-chloro-4-(pyridin-3-yl)-3-(3-o-tolylacryloyl)quinolin-2(1H)-one], the IC50 in test [2] came out at 1040 nM; in test [3] it was 2440 nM.

For the molecule `Cc1ccccc1CNC(=O)c1c(-c2ccccc2)c2cc(Cl)ccc2[nH]c1=O` [Compound 13, 6-chloro-N-(2-methylbenzyl)-2-oxo-4-phenyl-1,2-dihydroquinoline-3-carboxamide], the IC50 in test [2] is 4730 nM; in test [3], 3100 nM.

Take `O=C(/C=C/c1ccccc1)c1c(-c2ccccc2)c2cc(Cl)cnc2[nH]c1=O` [Compound 14, 6-chloro-3-cinnamoyl-4-phenyl-1,8-naphthyridin-2(1H)-one]: the IC50 worked out at 710 nM in test [2] and 14100 nM in test [3].

`Cc1noc(C)c1-c1ccc2[nH]c(=O)c(C(=O)/C=C/c3ccccc3)c(-c3cccnc3)c2c1` [drawing 644]: in test [1], the inhibition at 10 µM came out at 62%.

As to `Cc1ccc(-c2nnc(Sc3c(-c4ccccc4)c4cc(Cl)ccc4[nH]c3=O)n2/N=C/c2ccccc2)cc1` [drawing 646], the inhibition at 10 µM in test [1] was 70%.

In the case of `Cc1ccc(-c2nnc(Sc3c(-c4ccccc4)c4cc(Cl)ccc4[nH]c3=O)n2/N=C/c2ccccc2)cc1` [drawing 647], the “% inhibition at 10 μM” value in test [1] came out at 71%.

For `COc1ccc(Cn2c(=O)c(-c3coc(C)n3)c(OS(=O)(=O)c3ccccc3)c3cc(Cl)ccc32)cc1` [drawing 651], in test [1], the inhibition at 10 µM turned out to be 98%.

On to `COc1ccc(Cn2c(=O)c(-c3coc(C)n3)c(OS(=O)(=O)c3cccc4cccnc34)c3cc(Cl)ccc32)cc1` [drawing 652], for which the inhibition at 10 µM in test [1] stood at 98%.

Take `COc1ccc(Cn2c(=O)c(-c3coc(C)n3)c(OS(=O)(=O)c3ccc(C)cc3)c3cc(Cl)ccc32)cc1` [drawing 653]: the inhibition at 10 µM in test [1] was 99%.

As to `COc1ccc(Cn2c(=O)c(-c3coc(C)n3)c(OS(=O)(=O)c3ccc(F)cc3)c3cc(Cl)ccc32)cc1` [drawing 654], the inhibition at 10 µM in test [1] worked out at 99%.

`COc1ccc(Cn2c(=O)c(-c3coc(C)n3)c(OS(=O)(=O)c3ccc(Cl)cc3)c3cc(Cl)ccc32)cc1` [drawing 655]: in test [1], the inhibition at 10 µM is 99%.

On to `COc1ccc(Cn2c(=O)c(-c3coc(C)n3)c(OS(=O)(=O)c3ccc4ccccc4c3)c3cc(Cl)ccc32)cc1` [drawing 656], for which the inhibition at 10 µM in test [1] stood at 99%.

For `COc1ccc(Cn2c(=O)c(-c3coc(C)n3)c(OS(=O)(=O)c3ccc(-c4ccccc4)cc3)c3cc(Cl)ccc32)cc1` [drawing 657], the inhibition at 10 µM in test [1] stood at 99%.

For orientation: inhibition means the share of the control response that was lost under treatment. A word on the IC50: it is the concentration needed to halve the response being measured. What is called % inhibition is the percentage by which the read-out fell short of the control.

Values taken from US9695179B2, “Methods and compositions for inhibition of bromodomain-containing proteins” (CONVERGENE LLC, priority 2013, dated 2017).
